Data set [1] deals with rat hepatoma (H4IIE) cell line. Kind of data set: CeeTox cell mass (cell number), propidium iodide fluorescence. As to conditions: H4IIE cells; for Cell Number TC50: 24hour analysis endpoint, cell number (or mass). Format: cell-based. As to the method: (§1) All Ceetox assays utilizing the rat hepatoma (H4IIE) cell line as the test system were conducted by CeeTox Inc Kalamazoo, MI. Ceetox assays are described in detail by McKim and Lapchak and according to a Standard Operating Procedure (SOP).
(§2) Rat hepatoma derived H4IIE cells were used as the test system because the cell have a rapid doubling time in culture (i.e. 22 hours). The culture medium used for these cells was Eagles Minimum Essential Medium (MEM) with 10% bovine serum and 10% calf serum (Invitrogen). H4IIE cells were seeded into 96-well plates and allowed to equilibrate for approximately 48 hr before drug assay to allow cells to move into a stable growth phase prior to treatment. Following the equilibration period the cells were exposed to J-147 at concentrations of 1–300 μM. Three to 7 replicates were done for each assay to construct concentration-response curves. Solubility was determined by Nephalometry techniques immediately after dosing and prior to harvesting the cells at 6 or 24 hr. Following the incubation period, cells or their supernatant (culture medium) were analyzed for changes in cell proliferation (cell mass), membrane leakage, mitochondrial function, oxidative stress, and apoptosis. The resultant exposure concentration response curves were graphed and analyzed for determining the concentration that produced a half maximal response or TC50 [28, 30].
Cell mass in each well was measured with a modified propidium iodide (PI), a specific nucleic acid binding dye that fluoresces when intercalated within the nucleic acids. The 15nm shift enhances PI fluorescence approximately 20 times while the excitation maxima are shifted 30–40nm. Triton-X-100 was used to permeabilize the H4IIE cells thereby allowing the PI access to intracellular RNA and DNA. Fluorescence was measured using a Packard Fusion plate reader at 540 nm excitation and 610 nm emission. Data is collected as relative fluorescent units (RFU) and expressed as percent change relative to control;

In data set [2] the test system is rat hepatoma (H4IIE) cell line. The data set can be described thus: CeeTox membrane toxicity, α-GST leakage ELISA. It is filed as cell-based. As to conditions: H4IIE cells, 24hour; membrane toxicity measured using GST leakage. As to the method: as §1, §2
(§3) The presence of α-Glutathione S-transferase (α-GST), an enzyme leakage marker, was measured in the culture medium using an ELISA assay purchased from Argutus Medical. […] Absorbance values were measured with a Packard SpectraCount™ reader at 450 nm and reference absorbance at 650 nm. Leakage of α-GST from the cell into the culture medium was determined by collecting the culture medium at the end of the exposure period. Thus, the values measured represent total enzyme leakage lost over the exposure period. […] Sample absorbance was read at 570 nm and reference absorbance at 650 nm with a Packard Fusion reader. […]

In data set [3] the test system is rat hepatoma (H4IIE) cell line. The data set can be described thus: CeeTox MTT reduction assay. Conditions: H4IIE cells, 24hour. Format: cell-based. As to the method:
as §1, §2, §3

For data set [4], the system named is Caspase 3 in H4IIE cells. Kind of data set: Apoptosis: caspase 3 activity (DEVD-AMC). It is filed as cell-based, rat. As to the method: as §2
Caspase 3 activity was determined using a caspase substrate (DEVD, Asp-Glu-Val-Asp) labeled with a fluorescent molecule, 7-Amino-4-methylcoumarin (AMC). Caspase 3 cleaves the tetrapeptide between D and AMC, thus releasing the fluorogenic green AMC [28]. Following the test article exposure to cells in 96-well plates, medium was aspirated from plates and PBS added to each well. Plates were stored at −80°C to lyse cells and store samples until further analysis. On the day of analysis, plates were removed from freezer and thawed. […] AMC release was measured in a spectrofluorometer at an excitation wavelength of 360 nm and an emission wavelength of 460 nm. Values are expressed as relative fluorescent units (RFU). […]

For data set [5], the system named is low-density cultured rat cortical neurons. Conditions: previously published; read-out: EC50 neurotrophism; cited from earlier work.
In data set [6] the test system is dopamine transporter. Further details: method as in PMID 23673233. As to conditions: read-out: EC50 dopamine transporter inhibition; cited from earlier work.
Data set [7] is described as follows: Microsomal metabolic stability. It is filed as in vitro ADME. As to conditions: 30 minutes at 37°C, rat microsomes. The method, then:
Metabolic stability was conducted using pooled microsomes from non-induced male Sprague-Dawley rats. J-147 was incubated for 30 minutes at 37°C at concentrations of 1 μM. Subsequent HPLC analysis using a Waters Alliance 2795 in combination with a Waters Quattro Premier mass spectrometer measured disappearance of the parent molecule. The compounds were run on a Waters X-BridgeC18 (186003021) 50 × 2.1 mm column with 3.5 micron particle packing at a flow rate of 1 ml/min and with the temperature maintained at 50°C. Solvent A was water with 0.1% formic acid. Solvent B was acetonitrile with 0.07% formic acid. The data for 3 replicates are expressed as percent of parent remaining.

In data set [8] the test system is HT22 and primary cell. More on the design: method as in PMID 22194796, PMID 23673233. Conditions: HT22 and primary cortical cells, IAA or glutamate toxicity; read-out: EC50 neuroprotection (cell survival); cited from earlier work.
Data set [9] deals with AD mouse. Further details: method as in PMID 23673233. Conditions: cited from earlier work.
The test system of data set [10] is MAOB. More on the design: method as in PMID 23673233. As to conditions: read-out: EC50 MAOB inhibition; cited from earlier work.

The text below walks through data of paper PMC4215638, “J-147 a Novel Hydrazide Lead Compound to Treat Neurodegeneration: CeeTox™ Safety and Genotoxicity Analysis” (Journal of neurology & neurophysiology, 2013).

Regarding `CC[C@@]1(O)C(=O)OCc2c1cc1n(c2=O)Cc2cc3ccccc3nc2-1` [Camptothecin, camptothecin], the “Cell Number TC50” value in data set [1] is 600 nM. For the same compound, the “Mem Tox TC50” value in [2] was >300000 nM. The “MTT TC50” value in [3] was determined as 500 nM. In data set [4] (dose part of cell), the “Caspase 3 Activity (Index/Dose): dose” value is 1 (0–200=1). For the same compound, the “Caspase 3 Activity (Index/Dose): index” value in [4] (index part of cell) is 3 (400–600=3).
Turning to `COc1cccc(/C=N/N(C(=O)C(F)(F)F)c2ccc(C)cc2C)c1` [J-147, (E)-N-(2,4-Dimethylphenyl)-2,2,2-trifluoro-N′-(3-methoxybenzylidene) acetohydrazide], the EC50 in [5] is 25 nM; in [6], 650 nM; in data set [8], 60 to 115 nM; in data set [10] it was 1880 nM. The “Cell Number TC50” value in [1] came to 293000 nM. Also, in data set [1] (prior to effects on other markers, in the absence of cell death), the “Concentration range with decrease in cell proliferation” value was in the range of 20 to 100 µM. Also, the “Mem Tox TC50” value in [2] was >300000 nM. Moreover, the “Metabolism Ranking” value in data set [7] (1 μM) was “High (<45=high)”. Moreover, in data set [7] (male, Sprague-Dawley, pooled microsomes from non-induced rats, percent of parent remaining), the amount remaining at 0.5 h, 1 μM was 12%. Moreover, the “MTT TC50” value in [3] was determined as 228000 nM. Also, the “Safety and memory impairment after chronic administration” value in data set [9] was “safe and beneficial to reduce memory impairment”. Besides, the “Effect on caspase-3 activity” value in data set [4] is given as “did not affect”.
In the case of `C=C(C)[C@H]1Cc2c(ccc3c2O[C@@H]2COc4cc(OC)c(OC)cc4[C@@H]2C3=O)O1` [Rotenone, rotenone], in data set [1], the “Cell Number TC50” value is 40 nM. In [2], the “Mem Tox TC50” value was found to be 930 nM. In data set [3], the “MTT TC50” value worked out at 70 nM.
